The values below come from patent EP0433084A2, “Use of aromatese inhibitors for the reversal of female sexual phenotype in poultry” (MERCK & CO. INC., priority 1989, dated 1991).

Data set [1] deals with autosexing strains of chickens. On the procedure:
(§1) To more easily monitor changes in development as a function of age according to genetic sex two different autosexing strains of chickens were treated as above. All chickens were allowed to reach sexual maturity. […] One of the three was killed after 24 weeks and the remaining two (tag numbers 1977 and 1981) were killed after 31 weeks. Prior to killing blood was taken from each animal and used to determine sex steroid levels. At the time of killing the gonads were removed and fixed for histology in Bouin's fixative.
The right gonad and oviduct of the normal female begins to regress during embryogenesis and at maturity females have a single ovary and oviduct. The remaining left ovary consists of a series of follicles staged to mature at daily intervals.

The test system of data set [2] is hybrids used in Example 3. Conditions: for Estradiol / Testosterone: serum. The protocol: as §1
Estradiol and testosterone levels were determined in serum samples using commercial RIA assay kits which are well known in the art.

A further data set relates to turkey embryos. The protocol: A light source was used to orient the eggs and the injection is made under the air sac into the egg white surrounding the developing embryo. The hole was sealed with Scotch tape and the eggs were placed in a humidified, rocking incubator. The birds were allowed to hatch and the phenotypic and genotypic sex determined.
Data set [3] concerns gonads from control males and treated females. As to conditions: in vivo.
Protocol: Histological examination of gonads from control males and treated females at 31 weeks of age was carried out on tissue fixed in Bouin's solution prior to embedding in paraffin. Sections were stained with hematoxylin and eosin.
In data set [4] the test system is Abor Acre x Abor Acre Hybrid Broiler Chickens. Kind of data set: in vivo. On the procedure: (§2) The inhibitor was dissolved in saline at concentrations ranging form 1 mg/ml to 100 mg/ml and the injection volume ranged from 20 µl to 100 µl producing doses of 20 µg to 10 mg. Injections were made with a 23 G x 1 inch needle. A light source was used to orient the eggs and the injection is made under the air sac into the egg white surrounding the developing embryo. The hole was sealed with Scotch tape and the eggs were placed in a humidified, rocking incubator. At day fourteen of incubation, the embryos were removed form their shells and dissected to observe development of the gonads.
(§3) The procedures are the same as described above.

A short description of a further data set: in vivo. Conditions: chicken, embryos in ovo, %Hatched. On the procedure:
as §2, §3

Data set [5] concerns Line 139 White Leghorn Chickens. As to conditions: for Female / Male / Und. (Undetermined): gonadal sex type at day 14, number of embryos; for Survived day 14: number of embryos. The protocol: as §2
The test system of data set [6] is Line 67 White Leghorn embryos. As to conditions: in vivo. The protocol: as §2
In data set [7] the test system is F₁ Hybrids of Rhode Island Males Crossed With Plymouth Barred Rock Females. Kind of data set: Gonadal sex type of 14 day embryos after in ovo injection. It counts as in vivo, chicken. The protocol:
Fertilized chicken embryos were injected on day 5 of incubation with the aromatase inhibitor 1,4,6-androstatriene-3,17-dione. The inhibitor was dissolved in 1,2-propane-diol at a concentration of 20 mg/ml and the injection volume was 100 µl producing a dose of 2 mg.

A further data set deals with female Mullerian ducts. Conditions: chick embryo; Huston et al., Gen. Comp. Endocrinol. 57: 88-102 (1985); cited from earlier work.
Where [8] appears, read: animal 1977, treated genetic female, phenotypic male, 31 weeks.
The mark [9] stands for this setting: animal 1978, treated genetic male.
[10] abbreviates: animal 1981, treated genetic female, phenotypic male, 31 weeks.
The mark [11] stands for this setting: Experiment 1, 20 µg injected on day 5.
Where [12] appears, read: Experiment 1, 100 µg injected on day 5.
Where [13] appears, read: Experiment 1, 2 mg injected on day 5.
[14] abbreviates: Experiment 1, 10 mg injected on day 5, none survived.
[15] abbreviates: Experiment 2, 100 µg injected on day 4.
The mark [16] stands for this setting: Experiment 2, 1 mg injected on day 4.
[17] abbreviates: Experiment 3, 100 µg injected on day 5.
Where [18] appears, read: Experiment 3, 1 mg injected on day 5.
The mark [19] stands for this setting: gonadal sex type at day 14, number of embryos, 2.0 mg injected on day 5.

Where a name gives a salt, the structure may show the parent alone. Read-outs that look alike come from different tables or passages of the source.

For the compound `N#Cc1ccc(C2CCCc3cncn32)cc1` (racemic) [± 5-(p-cyanophenyl)-5,6,7,8-tetrahydroimidazo [1,5-α] pyridine hydrochloride], the “abdominal fat of treated females” value in data set [1] (31 week old, abdominal cavities opened, compared with control females) was “absence of abdominal fat”. The “treated females developed a male phenotype” value in data set [1] (Sex-Sal autosexing strain, injected day 4 or 5, at sexual maturity) was “one of two”. In addition, the “appearance and behavior of treated females” value in data set [1] (by seven months of age, injected day 4 or 5) is “obviously masculine in appearance and behavior”. For the same compound, the “adult females developed male phenotypes” value in data set [1] (hybrids used in Example 3, injected day 4 or 5, at sexual maturity) is “three of four”. The “presence of testes in treated females” value in data set [1] (two gonads without oviducts, at necropsy) is recorded as “three of the four”. Besides, in data set [2] (31 week old), the “serum hormone profiles of treated females” value is “resembling adult males”. Moreover, the Estradiol in data set [2] (animal 1976, treated genetic female that did not respond, phenotypically female) was determined as 57 ng/mL; in data set [2] (setting [8]) it was 12 ng/mL; in data set [2] (setting [9]) it was 5 ng/mL; in data set [2] (setting [10]), 2 ng/mL. Moreover, the Testosterone stood at 224 ng/mL in data set [2] (setting [8]), 412 ng/mL in data set [2] (setting [9]) and 109 ng/mL in data set [2] (setting [10]). The “phenotype of unhatched embryos” value in the data set on turkey embryos (1 mg, 2 pipped embryos and 2 embryos that died after 25 and 27 days of incubation) is on record as “All embryos were phenotypic male”. For the same compound, the “vent sexed as male” value in the data set on turkey embryos (1 mg, of 4 hatched birds, 2 feather-sexed as female and 2 as male) amounted to 4. For the same compound, in the data set with turkey embryos (eggs inoculated with 1 mg, day 4 or 5 of incubation), the birds hatched result is reported as “Four”. For the same compound, the “seminiferous tubules in gonads of treated females” value in data set [3] is “present in both the left and right gonads”. For the same compound, the Female in data set [4] (10 µg injected on day 5) was determined as 36; in data set [4] (50 µg injected on day 0), 2; in [4] (50 µg injected on day 5), 0; in data set [4] (100 µg injected on day 5) it was 0; in [5] (setting [11]), 2; in data set [5] (setting [12]), 0. The Female in data set [5] (setting [13]), in data set [5] (setting [14]), in data set [5] (setting [15]), in [5] (setting [16]), in [5] (setting [17]) and in data set [5] (setting [18]) was 0 each time. The Male is recorded as 60 in data set [4] (10 µg injected on day 5); 45 in data set [4] (50 µg injected on day 0); 88 in [4] (50 µg injected on day 5); 91 in data set [4] (100 µg injected on day 5); 0 in [5] (setting [11]); 3 in data set [5] (setting [12]). Moreover, the Male in data set [5] (setting [13]) was 2; in [5] (setting [14]), 0; in data set [5] (setting [15]), 3; in data set [5] (setting [16]), 4; in data set [5] (setting [17]), 4; in data set [5] (setting [18]), 5. Also, the survival is 72% in “in vivo” (0.01 mg, 10 µg injected on day 5); 40% in “in vivo” (0.05 mg, 50 µg injected on day 0); 67% in the data set “in vivo” (0.05 mg, 50 µg injected on day 5); 69% in “in vivo” (0.1 mg, 100 µg injected on day 5). For the same compound, the “Und. (Undetermined)” value in data set [5] (setting [11]) is 0; in data set [5] (setting [12]) it was 0; in data set [5] (setting [13]), 0; in data set [5] (setting [14]), 0; in [5] (setting [15]), 1; in data set [5] (setting [16]) it was 0. Also, the “Und. (Undetermined)” value turned out to be 1 in data set [5] (setting [17]) and 0 in data set [5] (setting [18]). The “Survived day 14” value in data set [5] (Experiment 1, 20 µg injected on day 5, 4 injected) turned out to be 2; in [5] (Experiment 1, 100 µg injected on day 5, 4 injected) it was 3; in data set [5] (Experiment 1, 2 mg injected on day 5, 4 injected), 2; in data set [5] (Experiment 1, 10 mg injected on day 5, 4 injected), 0; in [5] (Experiment 2, 100 µg injected on day 4, 5 injected), 4; in data set [5] (Experiment 2, 1 mg injected on day 4, 6 injected), 4. The “Survived day 14” value in [5] (Experiment 3, 100 µg injected on day 5, 7 injected) turned out to be 5; in data set [5] (Experiment 3, 1 mg injected on day 5, 7 injected) it was 5. For the same compound, in [6], the “vent sexed as males” value is given as “all birds”.
`C[C@]12C=CC(=O)C=C1C=C[C@@H]1[C@@H]2CC[C@]2(C)C(=O)CC[C@@H]12` [1,4,6-androstatriene-3,17-dione] came in with a birds being males in data set [7] (2 mg injected on day 5, gonads at day 14) of 100%. In [7] (setting [19]), the Female stood at 0 and the Male is 5. Also, in [7] (number of embryos, 2.0 mg in 1,2-propane-diol injected on day 5), the “Survived day 14” value worked out at 5.
`O=C(c1ccc(OCCN2CCCC2)cc1)c1c(-c2ccc(O)cc2)sc2cc(O)ccc12` [LY117018]: the “effect on the female Mullerian ducts” value in the data set on female Mullerian ducts is “little effect”.
With `C#C[C@]1(O)CC[C@H]2[C@@H]3CCC4=CC(=O)CC[C@@H]4[C@H]3CC[C@@]21C` [norethindrone], the “effect on the female Mullerian ducts” value in the data set with female Mullerian ducts is “partial regression of the upper end of the left Mullerian duct as well as complete loss of the lower ends of both ducts”.
On to `CC/C(=C(\c1ccccc1)c1ccc(OCCN(C)C)cc1)c1ccccc1` [tamoxifen], for which, in the data set on female Mullerian ducts, the “effect on the female Mullerian ducts” value is “little effect”.
